In patent US4257941A, “Polycyclic nitrogen-containing compounds” (BASF Aktiengesellschaft, priority 1976, dated 1981):

Key:
wheat = assay: Growth height of wheat, greenhouse (Example 7); type: in vivo, wheat (Opal variety); settings: leaf; for Plant height relative: control 100
Source text: (§1) In the greenhouse, the four cereals wheat ("Opal" variety), rye ("Petkuser"), barley ("Villa") and oats ("Flamingskrone") were sown in plastic dishes 11.5 cm in diameter in a sandy loam adequately supplied with nutrients. The active ingredients were applied at various rates to the soil and to the leaves. When applied to the soil, the active ingredient were sprayed onto the surface of the soil on the day of sowing; in the case of leaf treatment, the leaves were sprayed in the usual manner at a growth height of the plants of 10 cm. During the 18 day growth period, the treated plants grew much more slowly than the untreated control, a fact later confirmed by measurements of the stem length. Measurements were taken of 100 plants from each series.
(§2) The prior art agent used for comparison purposes was N-2-chloroethyl-N,N,N-trimethylammonium chloride (CCC; German Printed Application DAS No. 1,294,734).

rye = assay: Growth height of rye, greenhouse (Example 8); type: in vivo, rye (Petkuser); settings: soil; for Plant height relative: control 100
Source text: as §1, §2

lawns = assay: Long-term action on lawns (Example 14); type: in vivo; settings: for First cutting, green weight relative / First cutting, growth height relative / Second cutting, green weight relative / Second cutting, growth height relative / Third cutting, green weight relative: control 100

## Brc1ccc(N2N=NC3C4CC(C5N=NC45)C32)cc1 (stereo not drawn) [drawing 347]
wheat; 0.125 kg/ha
  Plant height: 25.0 cm
  Plant height relative: 83.3
wheat; 0.5 kg/ha
  Plant height: 23.5 cm
  Plant height relative: 78.3
wheat; 1.0 kg/ha
  Plant height: 21.0 cm
  Plant height relative: 70.0
wheat; 2.0 kg/ha
  Plant height: 21.5 cm
  Plant height relative: 71.7
wheat; 4.0 kg/ha
  Plant height: 20.0 cm
  Plant height relative: 66.7

## Clc1ccc(N2N=NC3C4CC(C5N=NC45)C32)cc1 (stereo not drawn) [drawing 348]
rye; 0.5 kg/ha
  Plant height: 22.5 cm
  Plant height relative: 77.6
rye; 1.0 kg/ha
  Plant height: 19.0 cm
  Plant height relative: 65.5
rye; 2.0 kg/ha
  Plant height: 13.0 cm
  Plant height relative: 44.8
rye; 6.0 kg/ha
  Plant height: 8.5 cm
  Plant height relative: 29.3

## Brc1ccc(N2N=NC3C4CC(C5N=NC45)C32)cc1 (stereo not drawn) [drawing 380]
lawns; 0.5 kg/ha
  First cutting, green weight: 25.5 g
  First cutting, growth height: 14.5 cm
  Second cutting, green weight: 27.8 g
  Second cutting, growth height: 14.5 cm
  Third cutting, green weight: 16.5 g
  First cutting, green weight relative: 72.2
  First cutting, growth height relative: 80.6
  Second cutting, green weight relative: 104.1
  Second cutting, growth height relative: 98.6
  Third cutting, green weight relative: 108.6
lawns; 1.0 kg/ha
  First cutting, green weight: 24.4 g
  First cutting, growth height: 12.5 cm
  Second cutting, green weight: 25.1 g
  Second cutting, growth height: 11.5 cm
  Third cutting, green weight: 16.5 g
  First cutting, green weight relative: 69.1
  First cutting, growth height relative: 69.5
  Second cutting, green weight relative: 94.0
  Second cutting, growth height relative: 78.2
  Third cutting, green weight relative: 108.6
lawns; 2.0 kg/ha
  First cutting, green weight: 22.0 g
  First cutting, growth height: 11.0 cm
  Second cutting, green weight: 18.7 g
  Second cutting, growth height: 8.0 cm
  Third cutting, green weight: 14.0 g
  First cutting, green weight relative: 62.3
  First cutting, growth height relative: 61.1
  Second cutting, green weight relative: 70.0
  Second cutting, growth height relative: 54.4
  Third cutting, green weight relative: 92.1
lawns; 4.0 kg/ha
  First cutting, green weight: 16.5 g
  First cutting, growth height: 10.5 cm
  Second cutting, green weight: 13.2 g
  Second cutting, growth height: 7.0 cm
  Third cutting, green weight: 10.3 g
  First cutting, green weight relative: 46.7
  First cutting, growth height relative: 58.3
  Second cutting, green weight relative: 49.4
  Second cutting, growth height relative: 47.6
  Third cutting, green weight relative: 67.8

## Clc1ccc(N2N=NC3C4CC(C5NNC45)C32)cc1 (stereo not drawn) [drawing 381]
lawns; 0.5 kg/ha
  First cutting, green weight: 28.8 g
  First cutting, growth height: 16.5 cm
  Second cutting, green weight: 27.2 g
  Second cutting, growth height: 12.5 cm
  Third cutting, green weight: 17.2 g
  First cutting, green weight relative: 81.6
  First cutting, growth height relative: 91.7
  Second cutting, green weight relative: 101.9
  Second cutting, growth height relative: 85.0
  Third cutting, green weight relative: 113.2
lawns; 1.0 kg/ha
  First cutting, green weight: 21.3 g
  First cutting, growth height: 13.5 cm
  Second cutting, green weight: 20.5 g
  Second cutting, growth height: 9.0 cm
  Third cutting, green weight: 15.1 g
  First cutting, green weight relative: 60.3
  First cutting, growth height relative: 75.0
  Second cutting, green weight relative: 76.8
  Second cutting, growth height relative: 61.2
  Third cutting, green weight relative: 99.3
lawns; 2.0 kg/ha
  First cutting, green weight: 17.2 g
  First cutting, growth height: 11.5 cm
  Second cutting, green weight: 16.2 g
  Second cutting, growth height: 7.5 cm
  Third cutting, green weight: 12.5 g
  First cutting, green weight relative: 48.7
  First cutting, growth height relative: 63.9
  Second cutting, green weight relative: 60.7
  Second cutting, growth height relative: 51.0
  Third cutting, green weight relative: 82.2
lawns; 4.0 kg/ha
  First cutting, green weight: 13.9 g
  First cutting, growth height: 9.0 cm
  Second cutting, green weight: 10.2 g
  Second cutting, growth height: 5.0 cm
  Third cutting, green weight: 9.8 g
  First cutting, green weight relative: 39.4
  First cutting, growth height relative: 50.0
  Second cutting, green weight relative: 38.2
  Second cutting, growth height relative: 34.0
  Third cutting, green weight relative: 64.5

## c1cc2sncc2cc1N1N=NC2C3CC(C4N=NC34)C21 (stereo not drawn) [drawing 382]
lawns; 0.5 kg/ha
  First cutting, green weight: 31.8 g
  First cutting, growth height: 18.5 cm
  Second cutting, green weight: 28.8 g
  Second cutting, growth height: 14.0 cm
  Third cutting, green weight: 15.5 g
  First cutting, green weight relative: 90.1
  First cutting, growth height relative: 102.8
  Second cutting, green weight relative: 107.9
  Second cutting, growth height relative: 95.2
  Third cutting, green weight relative: 102.0
lawns; 1.0 kg/ha
  First cutting, green weight: 27.1 g
  First cutting, growth height: 16.5 cm
  Second cutting, green weight: 25.8 g
  Second cutting, growth height: 13.0 cm
  Third cutting, green weight: 15.3 g
  First cutting, green weight relative: 76.8
  First cutting, growth height relative: 91.7
  Second cutting, green weight relative: 96.6
  Second cutting, growth height relative: 88.4
  Third cutting, green weight relative: 100.7
lawns; 2.0 kg/ha
  First cutting, green weight: 20.3 g
  First cutting, growth height: 14.5 cm
  Second cutting, green weight: 19.1 g
  Second cutting, growth height: 9.0 cm
  Third cutting, green weight: 12.8 g
  First cutting, green weight relative: 57.5
  First cutting, growth height relative: 80.6
  Second cutting, green weight relative: 71.5
  Second cutting, growth height relative: 61.2
  Third cutting, green weight relative: 84.2
lawns; 4.0 kg/ha
  First cutting, green weight: 19.5 g
  First cutting, growth height: 12.5 cm
  Second cutting, green weight: 16.8 g
  Second cutting, growth height: 7.0 cm
  Third cutting, green weight: 12.8 g
  First cutting, green weight relative: 55.2
  First cutting, growth height relative: 69.5
  Second cutting, green weight relative: 62.9
  Second cutting, growth height relative: 47.6
  Third cutting, green weight relative: 84.2
